Data as given in paper PMC7961587, “Novel Cell Permeable Polymers of N-Substituted L-2,3-Diaminopropionic Acid (DAPEGs) and Cellular Consequences of Their Interactions with Nucleic Acids” (International Journal of Molecular Sciences, 2021).

Assays:
[1] = test system: MDA-MB-231 or HB-2 cell lines; assay: Cytotoxicity assay: MTT; assay type: cell-based, human; conditions: for Cytotoxicity (percentage of dead cells): MTT assay, MDA-MB-231 or HB-2 cell lines, greatest concentration of 50 µg/mL, 24 h
Protocol: Cell viability against cell-penetrating compounds was detected by the MTT assay. The HB2 and MDA-MB-231 cells were seeded into 96-well plates at a density of 5 × 10^3/well and 7 × 10^3/well, respectively, and incubated in complete medium (100 µL/well) for 48 h. […] Cells incubated in media without any test compounds were used as control. After incubation, medium containing test compounds was removed, and 225 µL fresh medium with 25 µL 3-(4,5-dimethylthiazol-2-yl)-2,5-diphenyltetrazolium bromide (MTT) was added (0.5 mg/mL per well). After incubation at 37 °C for 4 h, supernatants were removed, and the formazan crystals were dissolved overnight with dimethyl sulfoxide (DMSO; 150 µL/well). Results were analyzed using a microplate reader (SPECTROstar Nano, BMG LABTECH, Ortenberg, Germany) at 570 nm and 690 nm.

[2] = test system: 76 bp dsDNA fragment containing the sequence of β-actin; assay: Surface plasmon resonance (SPR), dsDNA binding; parameters: species or system Homo sapiens; conditions: 50 and 100 µM compound over immobilized 76 bp dsDNA, HBS-EP buffer
Protocol: Standard surface plasmon resonance (SPR) analyses using a Biacore T200 (GE Healthcare, Warsaw, Poland) were performed essentially as described in the manufacturers’ manual. DNA binding by all tested compounds was studied using a 5′-biotinylated 76 nt ssDNA or 76 bp dsDNA fragment containing the sequence of β-actin (Homo sapiens), immobilized on a streptavidin matrix-coated sensor chip SA (GE Healthcare, Warsaw, Poland). All oligonucleotides were commercially synthesized (oligo.pl, Poland; Figures S3 and S4). The dsDNA was immobilized on the sensor surface to yield a final value of ~50 RU for dsDNA or ~100 RU. Experiments were performed at 25 °C, and the running buffer was HBS-EP (150 mM NaCl, 10 mM HEPES (pH = 7.4), 3 mM EDTA, and 0.05% Surfactant P20). In binding experiments, the buffer flow rate was set to 15 µL/min, and in kinetic experiments, the buffer flow rate was 30 µL/min. The data were analyzed using Biacore T200 evaluation software (GE Healthcare, Warsaw, Poland). The results are presented as sensorgrams obtained after subtracting the background response signal from a reference flow cell and from a control experiment with buffer injection.
Figure 2S. Cytotoxicity of compounds 1a–9a as assessed by the MTT assay. Two different cell lines were used: A) HB‐2 and B) MDA‐MB‐231.
Figure 3S. Surface plasmon resonance SPR analysis of double‐stranded DNA (dsDNA) binding by various peptidomimetics. The SPR analysis of dsDNA binding was performed using: A) 50 μM and B) 100 μM of the indicated compounds, flowed over the SA sensor chip surface with immobilized 76 bp biotinylated DNA fragment containing the sequence of beta‐ actin (Homo sapiens). Injections were performed in HBS‐EP buffer. HBS‐EP was also used as […]
Figure 4S. SPR analysis of DNA binding by compound 5a. […] (C) Kinetic constants calculated from at least three experiments using Biacore T200 Evaluation Software […]

[3] = molecular target: dsDNA (76 bp fragment) containing the sequence of beta-actin; assay: Microscale thermophoresis (MST), dsDNA binding; parameters: species or system Homo sapiens; conditions: Monolith NT.115, 0.437 µM 5/6-FAM-labeled compound, dsDNA 6.1 nM–200 µM, EDBS buffer pH 8, 32 °C 1 h, scanned at 25 °C, at least two independent experiments, read-out: Binding constant, double-stranded DNA (MST)
Protocol: (§1) Figure 7 Microscale thermophoresis (MST) analysis of dsDNA binding by 5/6-FAM-labeled compounds. The MST analysis. FAM-labeled compounds 1a (A), 4a (B), 5a (C), and ssDNA binding by 5/6-FAM-labeled compounds 1a (E), 4a (F), 5a (G) was performed using the Monolith NT.115 instrument (NanoTemper). Binding was measured between increasing concentrations (6.1 nM–200 µM) of dsDNA (76 bp fragment) and 0.437 µM of the indicated compounds labeled with 5/6-FAM. Control experiments were performed with DNA and 5/6-FAM dye (D,H).
(§2) Figure 9 Microscale thermophoresis (MST) analysis of dsDNA binding by 5/6-FAM-labeled compounds. The MST analysis of dsDNA binding by 5/6-FAM-labeled compounds 13a (A) and 14a (B), and ssDNA binding by 5/6-FAM-labeled compounds 13a (D) and 14a (E) was performed using the Monolith NT.115 instrument (NanoTemper). Binding was measured between increasing concentration (6.1 nM–200 µM) of dsDNA (76 bp fragment) and 0.437 µM of the indicated compounds labeled with 5/6-FAM. A control experiment was performed with DNA and 5/6-FAM dye (C,F).
(§3) Microscale thermophoresis was performed using the Monolith NT.115 instrument (NanoTemper Technologies GmbH, Munich, Germany). Binding between dsDNA (76 bp) or ssDNA (76 nt) fragments and test compounds labeled with 5/6-FAM was measured. […] All data were analyzed using MO Affinity Analysis software (NanoTemper, Munich, Germany).

ssDNA (76 nt) fragment = assay: Microscale thermophoresis (MST), ssDNA binding; parameters: species or system Homo sapiens; conditions: Monolith NT.115, 0.437 µM 5/6-FAM-labeled compound, EDBS buffer pH 8, 32 °C 1 h, scanned at 25 °C, at least two independent experiments, read-out: Binding constant, single-stranded DNA (MST)
Protocol: as §1, §2, §3

HB2 and MDA-MB-231 cells = assay: Cell permeability and localization by fluorescence microscopy; assay type: cell-based, human
Source text: Preliminary cell permeability experiments facilitated the identification of three groups of compounds. […] The first group includes compound 4 and its derivatives (4a and 4b) and the family of compound 5 (5a and 5b). Compounds 4 and 5 are similar in structure and are composed of six residues of diaminopropionic acid (Dap) decorated with side chains of different lengths, terminating with the same highly positive guanidine moiety. […] Both compounds display unique cellular localization. […] We believe that such effective nuclear localisation of the first group of tested compounds is due to the effective mimicking of the nuclear localisation sequence (NLS). Such sequence consists of several positively charged lysines or arginines present in the protein structure. Additionally, side chain length of the polymer molecules seems to be a crucial factor that is optimal for compounds belonging to first group of polymers.
HB2 and MDA-MB-231 cells were seeded on 24-well plates at a density 1.5 × 10^4/well and 4 × 10^4/well, respectively, and incubated in 0.5 mL complete medium for 48 h. Subsequently, cells were washed with phosphate-buffered saline (PBS), and fresh medium with a fluorescently labeled peptide was added to each well at a concentration of 10 µM. For nucleus staining a DAPI solution (ThermoFisher Scientific, Waltham, MA, USA, […] R37606) in PBS was employed in conditions recommended by the supplier. After the incubation (2 h or 24 h), cells were washed thoroughly with PBS, and then a phenol red-free culture medium (FluoroBrite, DMEM) was added. Subsequently, the cells were examined using an Olympus IX51 fluorescence microscope (Olympus, Tokyo, Japan) using appropriate filters: blue for DAPI, green for FITC, and red TAMRA. Next, the images were merged and colocalization of the dyes’ emission were analyzed.

Molecule: N=C(N)NCCC[C@@H](NC(=O)COCCOCCN)C(=O)N[C@H](CCCNC(=N)N)C(=O)N[C@H](CCCNC(=N)N)C(=O)N[C@H](CCCNC(=N)N)C(=O)N[C@H](CCCNC(=N)N)C(=O)N[C@H](CCCNC(=N)N)C(=O)NCCOCCOCC(N)=O [compound 2, O2Oc(D-arg)6-O2Oc-NH2]
- Cytotoxicity (percentage of dead cells) [1]: 15%
- DNA binding class set arbitrarily from the SPR experiment (Figure S3) [2]: Moderate

Molecule: 5′,6-FAM [compound 10, reference compound]
- Kd [3]: 639 ± 703 µM
- Kd (ssDNA (76 nt) fragment): 399 ± 497 µM

Molecule: N=C(N)NCCC[C@H](NC(=O)COCCOCCN)C(=O)N[C@@H](CCCNC(=N)N)C(=O)N[C@@H](CCCNC(=N)N)C(=O)N[C@@H](CCCNC(=N)N)C(=O)N[C@@H](CCCNC(=N)N)C(=O)N[C@@H](CCCNC(=N)N)C(=O)NCCOCCOCC(N)=O [compound 1, O2Oc(Arg)6-O2Oc-NH2]
- Cytotoxicity (percentage of dead cells) [1]: 10%
- DNA binding class set arbitrarily from the SPR experiment (Figure S3) [2]: Moderate

Molecule: 5′,6-FAM-O2Oc-(Arg)6-O2Oc-NH2 [1a]
- Cell membrane crossing and localization, in words (HB2 and MDA-MB-231 cells; 10 µM, fluorescence microscopy, HB2 or MDA-MB-231 cells): partially visible in the cytoplasm in the form of granules
- Cell Permeablility (Target): cellular localization (HB2 and MDA-MB-231 cells; fluorescence microscope Olympus IX51, 10 µM fluorescently labeled compound, DAPI nucleus staining): cytoplasm
- Kd [3]: 7.4 ± 0.1 µM
- Cytotoxicity at the concentration used in the cell experiments, in words ([1]; 10 µM, MTT, Figure S2, HB-2 and MDA-MB-231): slightly cytotoxic
- Kd (ssDNA (76 nt) fragment): 0.02 ± 0.04 µM

Molecule: N=C(N)NCCCC[C@H](NC(=O)COCCOCCN)C(=O)N[C@@H](CCCCNC(=N)N)C(=O)N[C@@H](CCCCNC(=N)N)C(=O)N[C@@H](CCCCNC(=N)N)C(=O)N[C@@H](CCCCNC(=N)N)C(=O)N[C@@H](CCCCNC(=N)N)C(=O)NCCOCCOCC(N)=O [compound 3, O2Oc-(Har)6-O2Oc-NH2]
- Cytotoxicity (percentage of dead cells) [1]: 10%
- DNA binding class set arbitrarily from the SPR experiment (Figure S3) [2]: Weak
